Source: the NIST ThermoML archive (doi:10.1021/je100765j)
Numbers after ± are expanded uncertainties.

Assay: xn = mol fraction of the nth substance listed
Conditions: 101 kPa, Liquid; for speed of sound: Sing-around technique in a fixed-path interferometer

CCC(C)Cl (configuration not stated) [2-chlorobutane] + CC(C)OC(C)C
Conditions	mass density, 298.15 K [kg/m3]	mass density, 303.15 K [kg/m3]	mass density, 308.15 K [kg/m3]	mass density, 313.15 K [kg/m3]	speed of sound, 303.15 K [m/s]	speed of sound, 308.15 K [m/s]	speed of sound, 313.15 K [m/s]
x1 = 0.0519	724.535 ± 0.94	719.276 ± 0.95	713.939 ± 0.96	708.573 ± 0.97	979.57 ± 1.1	957.51 ± 1.1	935.64 ± 1.1
x1 = 0.0988	730.22 ± 0.93	724.919 ± 0.94	719.569 ± 0.95	714.181 ± 0.96	982.73 ± 1.1	960.7 ± 1.1	938.87 ± 1.1
x1 = 0.2006	742.995 ± 0.9	737.649 ± 0.91	732.261 ± 0.92	726.833 ± 0.93	989.5 ± 1.1	967.56 ± 1.1	945.88 ± 1.1
x1 = 0.3211	758.802 ± 0.87	753.411 ± 0.88	747.973 ± 0.89	742.484 ± 0.9	997.66 ± 1.1	975.92 ± 1.1	954.34 ± 1.1
x1 = 0.4201	772.485 ± 0.84	767.06 ± 0.85	761.571 ± 0.86	756.049 ± 0.87	1004.4 ± 1.1	982.81 ± 1.1	961.42 ± 1.1
x1 = 0.532	788.75 ± 0.81	783.263 ± 0.82	777.737 ± 0.83	772.166 ± 0.84	1012.3 ± 1.1	990.84 ± 1.1	969.67 ± 1.1
x1 = 0.6244	802.882 ± 0.78	797.355 ± 0.79	791.784 ± 0.8	786.18 ± 0.81	1018.8 ± 1.1	997.54 ± 1.1	976.57 ± 1.1
x1 = 0.726	819.123 ± 0.75	813.555 ± 0.76	807.944 ± 0.77	802.287 ± 0.78	1026.1 ± 1.1	1005 ± 1.1	984.26 ± 1.1
x1 = 0.8163	834.307 ± 0.72	828.698 ± 0.73	823.046 ± 0.74	817.349 ± 0.75	1032.6 ± 1.1	1011.6 ± 1.1	991.15 ± 1.1
x1 = 0.8817	845.724 ± 0.69	840.084 ± 0.7	834.402 ± 0.72	828.683 ± 0.73	1037.2 ± 1.1	1016.4 ± 1.1	996.09 ± 1.1
x1 = 0.9634	860.57 ± 0.66	854.895 ± 0.68	849.179 ± 0.69	843.442 ± 0.7	1043.2 ± 1.1	1022.6 ± 1.1	1002.5 ± 1.1
